# Target: T1, Aurora-2 (Homo sapiens, UniProt O14965)
# T1 sequence (O14965 1-403): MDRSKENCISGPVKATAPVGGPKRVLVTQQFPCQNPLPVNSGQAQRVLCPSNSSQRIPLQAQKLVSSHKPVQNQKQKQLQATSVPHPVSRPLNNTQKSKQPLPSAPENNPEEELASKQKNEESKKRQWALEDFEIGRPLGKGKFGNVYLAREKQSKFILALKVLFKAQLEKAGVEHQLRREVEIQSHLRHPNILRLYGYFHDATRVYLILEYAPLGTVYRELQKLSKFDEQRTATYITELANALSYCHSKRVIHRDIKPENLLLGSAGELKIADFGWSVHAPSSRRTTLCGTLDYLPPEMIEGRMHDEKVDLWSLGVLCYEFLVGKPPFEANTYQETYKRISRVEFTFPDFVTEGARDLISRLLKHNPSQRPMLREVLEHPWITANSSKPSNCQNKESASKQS
# Test: Inhibition assay of Aurora-2 activity (SPA technology)
# Format: biochemical
# Details: screened according to the methods of the pharmacology section; read-out: IC50 values for Aurora-2 inhibition
# Method: The inhibiting activity and the potency of selected compounds is determined through a method of assay based on the use of the SPA technology (Amersham Pharmacia Biotech).
# The assay consists of the transfer of radioactivity labelled phosphate moiety by the kinase to a biotinylated substrate. The resulting 33P-labelled biotinylated product is allowed to bind to streptavidin-coated SPA beads (biotin capacity 130 pmol/mg), and light emitted was measured in a scintillation counter.
# Inhibition Assay of Aurora-2 Activity
# After 60 minutes at room temperature incubation, reaction was stopped and biotinylated peptide captured by adding 100 μl of bead suspension.
# Stratification: 100 μl of CsCl2 5 M were added to each well and let stand 4 hour before radioactivity was counted in the Top-Count instrument.
# Experimental data were analyzed by the computer program GraphPad Prizm using the four parameter logistic equation: y=bottom+(top−bottom)/(1+10^((logIC50−x)*slope)) where x is the logarithm of the inhibitor concentration, y is the response; y starts at bottom and goes to top with a sigmoid shape.
row,IC50,Compound
1,< 20 nM,"CC(C)(NC(=O)c1cc2c(NC(=O)c3ccc(F)cc3)n[nH]c2s1)c1ccccc1 [Compound 8, 3-[(4-fluorobenzoyl)amino]-N-(1-methyl-1-phenylethyl)-1H-thieno[2,3-c]pyrazole-5-carboxamide]"
2,< 20 nM,"CC(C)(NC(=O)c1cc2c(NC(=O)c3ccc(CN4CCN(C(C)(C)C)CC4)cc3)n[nH]c2s1)c1ccccc1 [Compound 57, 3-[4-(4-tert-Butyl-piperazin-1-ylmethyl)-benzoylamino]-1H-thieno[2,3-c]pyrazole-5-carboxylic acid (1-methyl-1-phenyl-ethyl)-amide]"
3,< 20 nM,"CC(C)(NC(=O)c1cc2c(NC(=O)c3ccc(CN4CCCCC4)cc3)n[nH]c2s1)c1ccccc1 [Compound 39, 3-(4-Piperidin-1-ylmethyl-benzoylamino)-1H-thieno[2,3-c]pyrazole-5-carboxylic acid(1-methyl-1-phenyl-ethyl)-amide]"
4,< 20 nM,"CN1CCN(c2ccc(C(=O)Nc3n[nH]c4sc(C(=O)NC(C)(C)c5ccc(F)cc5)cc34)cc2)CC1 [Compound 139, 3-[4-(4-Methyl-piperazin-1-yl)-benzoylamino]-1H-thieno[2,3-c]pyrazole-5-carboxylic acid [1-(4-fluoro-phenyl)-1-methyl-ethyl]amide]"
5,< 20 nM,"O=C(Nc1n[nH]c2sc(C(=O)N[C@H](CN3CCCC3)c3ccccc3)cc12)c1cccs1 [Compound 19, N-[(1S)-1-phenyl-2-pyrrolidin-1-ylethyl]-3-[(thien-2-ylcarbonyl)amino]-1H-thieno[2,3-c]pyrazole-5-carboxamide]"
6,< 20 nM,"Cn1cccc1C(=O)Nc1n[nH]c2sc(C(=O)NC(C)(C)c3ccccc3)cc12 [Compound 21, N-(1-methyl-1-phenylethyl)-3-{[(1-methyl-1H-pyrrol-2-yl)carbonyl]amino}-1H-thieno[2,3-c]pyrazole-5-carboxamide]"
7,< 20 nM,"CN1CCN(c2ccc(C(=O)Nc3n[nH]c4sc(C(=O)NC5(c6ccccc6)CCCC5)cc34)cc2)CC1 [Compound 34, 3-{[4-(4-methylpiperazin-1-yl)benzoyl]amino}-N-(1-phenylcyclopentyl)-1H-thieno[2,3-c]pyrazole-5-carboxamide]"
8,< 20 nM,"CC(C)(NC(=O)c1cc2c(NC(=O)c3ccc(CN4CCOCC4)cc3)n[nH]c2s1)c1cccc(F)c1 [Compound 42, 3-(4-Morpholin-4-ylmethyl-benzoylamino)-1H-thieno[2,3-c]pyrazole-5-carboxylic acid [1-(3-fluoro-phenyl)-1-methyl-ethyl]-amide]"
9,< 20 nM,"CC(C)(NC(=O)c1cc2c(NC(=O)c3ccc(CN4CCOCC4)cc3)n[nH]c2s1)c1ccccc1 [Compound 38, 3-(4-Morpholin-4-ylmethyl-benzoylamino)-1H-thieno[2,3-c]pyrazole-5-carboxylic acid (1-methyl-1-phenyl-ethyl)-amide]"
10,< 20 nM,"CC(C)(NC(=O)c1cc2c(NC(=O)c3ccc(N4CCS(=O)(=O)CC4)cc3)n[nH]c2s1)c1ccccc1 [Compound 144, 3-[4-(1,1-Dioxo-thiomorpholin-4-yl)-benzoylamino]-1H-thieno[2,3-c]pyrazole-5-carboxylic acid (1-methyl-1-phenyl-ethyl)-amide]"
11,< 20 nM,"CC(C)(NC(=O)c1cc2c(NC(=O)c3ccc(S(C)(=O)=O)cc3)n[nH]c2s1)c1ccccc1 [Compound 143, 3-(4-Methanesulfonyl-benzoylamino)-1H-thieno[2,3-c]pyrazole-5-carboxylic acid(1-methyl-1-phenyl-ethyl)-amide]"
12,< 20 nM,"CC[C@@H](NC(=O)c1cc2c(NC(=O)c3ccc(N4CCOCC4)cc3)n[nH]c2s1)c1ccccc1 [Compound 4, 3-[(4-morpholin-4-ylbenzoyl)amino]-N-[(1R)-1-phenylpropyl]-1H-thieno[2,3-c]pyrazole-5-carboxamide]"
13,< 20 nM,"CC(C)(NC(=O)c1cc2c(NC(=O)c3ccc(CNC4CCC4)cc3)n[nH]c2s1)c1ccccc1 [Compound 63, 3-(4-Cyclobutylaminomethyl-benzoylamino)-1H-thieno[2,3-c]pyrazole-5-carboxylic acid (1-methyl-1-phenyl-ethyl)-amide]"
14,< 20 nM,"CC(C)(NC(=O)c1cc2c(NC(=O)c3ccc(CN4CCCC4)cc3)n[nH]c2s1)c1ccc(F)cc1 [Compound 58, 3-(4-Pyrrolidin-1-ylmethyl-benzoylamino)-1H-thieno[2,3-c]pyrazole-5-carboxylic acid [1-(4-fluoro-phenyl)-1-methyl-ethyl]-amide]"
15,< 20 nM,"CC(C)(NC(=O)c1cc2c(NC(=O)c3ccc(CN4CCCCC4)cc3)n[nH]c2s1)c1ccc(F)cc1 [Compound 59, 3-(4-Piperidin-1-ylmethyl-benzoylamino)-1H-thieno[2,3-c]pyrazole-5-carboxylic acid [1-(4-fluoro-phenyl)-1-methyl-ethyl]-amide]"
16,< 20 nM,"CN1CCN(c2ccc(C(=O)Nc3n[nH]c4sc(C(=O)NC(C)(C)c5cccc(F)c5)cc34)cc2)CC1 [Compound 142, 3-[4-(4-Methyl-piperazin-1-yl)-benzoylamino]-1H-thieno[2,3-c]pyrazole-5-carboxylic acid [1-(3-fluoro-phenyl)-1-methyl-ethyl]-amide]"
17,< 20 nM,"CC(C)(NC(=O)c1cc2c(NC(=O)c3ccc(N4CCOCC4)cc3)n[nH]c2s1)c1ccccc1F [Compound 148, 3-(4-Morpholin-4-yl-benzoylamino)-1H-thieno[2,3-c]pyrazole-5-carboxylic acid [1-(2-fluoro-phenyl)-1-methyl-ethyl]-amide]"
18,< 20 nM,"CN1CCN(c2ccc(C(=O)Nc3n[nH]c4sc(C(=O)N[C@H](CN5CCCC5)c5ccccc5)cc34)cc2)CC1 [Compound 32, 3-{[4-(4-methylpiperazin-1-yl)benzoyl]amino}-N-[(1S)-1-phenyl-2-pyrrolidin-1-ylethyl]-1H-thieno[2,3-c]pyrazole-5-carboxamide]"
19,< 20 nM,"Cn1cccc1C(=O)Nc1n[nH]c2sc(C(=O)NC3(c4ccccc4)CC3)cc12 [Compound 22, 3-{[(1-methyl-1H-pyrrol-2-yl)carbonyl]amino}-N-(1-phenylcyclopropyl)-1H-thieno[2,3-c]pyrazole-5-carboxamide]"
20,< 20 nM,"CC(C)(NC(=O)c1cc2c(NC(=O)c3ccc(CN4CCCC4)cc3)n[nH]c2s1)c1ccccc1 [Compound 37, 3-(4-Pyrrolidin-1-ylmethyl-benzoylamino)-1H-thieno[2,3-c]pyrazole-5-carboxylic acid (1-methyl-1-phenyl-ethyl)-amide]"
21,< 20 nM,"CC[C@@H](NC(=O)c1cc2c(NC(=O)c3cccs3)n[nH]c2s1)c1ccccc1 [Compound 20, N-[(1R)-1-phenylpropyl]-3-[(thien-2-ylcarbonyl)amino]-1H-thieno[2,3-c]pyrazole-5-carboxamide]"
22,< 20 nM,"CC(C)(NC(=O)c1cc2c(NC(=O)c3ccc(CNC4CC4)cc3)n[nH]c2s1)c1ccccc1 [Compound 62, 3-(4-Cyclopropylaminomethyl-benzoylamino)-1H-thieno[2,3-c]pyrazole-5-carboxylic acid (1-methyl-1-phenyl-ethyl)-amide]"
23,< 20 nM,"CN(C)CCOc1ccc(C(=O)Nc2n[nH]c3sc(C(=O)NC(C)(C)c4ccccc4F)cc23)cc1 [Compound 126, 3-[4-(2-Dimethylamino-ethoxy)-benzoylamino]-1H-thieno[2,3-c]pyrazole-5-carboxylic acid [1-(2-fluoro-phenyl)-1-methyl-ethyl]-amide]"

# Source: US8481584B2, “1H-thieno[2,3-c]pyrazole derivatives useful as kinase inhibitors” (Nerviano Medical Sciences S.R.L., priority 2004, dated 2013)
